Results: patent publication US9114159B2, “Transcription factors in neuronal dendrites-dendritic protein synthesis and cell death” (The Trustees of the University of Pennsylvania, priority 2005, dated 2015)
“Also recorded” adds a separate entry of the source. Read-outs that look alike come from different tables or passages of the source. *1 amine or outer side, *2 acyl side, *3 side chain or, on linkers, in order; H or OH if unused. Where a SMILES comes first, the peptide text is derived from it. Bridges are numbered along the chain shown (N, C = ends). Roman numbers before positions name the chains, in order. [ ]: non-standard residue; d: D form. Actinocin(9to1) = Cc1c2oc3c(C)ccc(C(=O)[*:1])c3nc-2c(C(=O)[*:2])c(N)c1=O; NMeV = CN[C@H](C(=O)O)C(C)C; Sar = CNCC(=O)O

What was measured:
[1] = system: primary rat hippocampal neurons; settings: for effect on Elk-1 induced cell death: Elk-1 GFP mRNA photoporated into dendrites
Protocol: Cultured primary rat hippocampal neurons were bathed in 10-15 μg capped mRNA in 1 ml extracellular saline at 37° C. In some cases, neurons were pre-incubated with the translation inhibitor, anisomycin (5 μM), the mitochondrial PTP inhibitor, bongkrekic (BKA; 25 μM), or the transcriptional inhibitor, actinomycin D (1 μg/ml).
Samples were imaged and photoporated using a Prairie Ultima multiphoton scan head attached to an Olympus BX61 fixed-stage upright microscope equipped with a 40× water immersion lens (LUMPlanFI/IR, N.A. 0.8). 8 to 16 points were selected over a 2 μm×2 μm area for photoporation. A Ti-sapphire laser (Mai-Tai®, Spectral-Physics, Mountain View, Calif.) was used to make transient poration sites for 5 milliseconds at 30 mW (at back aperture of lens) energy. After photoporation, samples were transferred to an Olympus IX81 inverted microscope for simultaneous GFP fluorescence and DIC imaging. All images were processed with Metamorph (Universal Imaging Corporation) image processing software. For cell death assays, a LIVE/DEAD cell viability/cytotoxicity kit (Molecular Probes) was used according to the manufacturer's instructions.
A cell viability/cytotoxicity assay (Invitrogen Molecular Probes, Carlsbad, Calif.) was used to confirm the morphological observations of cell death following Elk-1 GFP mRNA photoporation. […] Obvious morphological signs of cell death may take hours to become apparent, whereas the use of a nuclear dye allows rapid identification of neurons that are in the process of dying.

[2] = system: primary rat hippocampal neurons; assay: Elk-1 immunocytochemistry after mGluR stimulation; type: cell-based; settings: 30-minute application, 50 μM, n=7
Excerpt: Immunocytochemistry/immunohistochemistry: Three polyclonal antibodies raised against Elk-1 (Santa Cruz Biotechnology, Santa Cruz, Calif.; Cell Signaling Technology, Beverly, Mass.) were used to detect Elk-1 protein in primary rat hippocampal cultures and in adult rat brain sections. A monoclonal antibody raised against a synthetic phospho-peptide of Elk-1 was used to detect Elk-1 protein phosphorylated at S383 (Cell Signaling Technology). […] For stimulation experiments, cultured neurons were placed in warm Hals buffer (pH=7.4) and treated with the Group I mGluR agonist, dihydrophenylglycine (DHPG; Tocris Cookson Inc., Ellisville, Mo.) at a final concentration of 50 μM for 30 minutes at 37° C. prior to fixation and immunocytochemistry.

[3] = system: primary rat hippocampal neurons; assay: DAPI and Hoechst nuclear stains for pycnotic nuclei; type: cell-based; settings: cells treated for 3 hours with 30 μM
Protocol: FIG. 5A is a graph depicting cell counts after Elk-1 over-expression. Neurons electroporated with Elk-1 in a pcDNA vector were stained with a MAP2 antibody at 48, 72, 96 and 168 hours after plating. Two 5× images of MAP2 immunoreactive neurons were taken for each experiment, and MAP2 positive neurons were counted manually. Shown are the percent decreases in MAP2 positive neurons compared to control. (Line=best fit) FIG. 5B are images of MAP2 immunoreactivity from neurons electroporated with a control pcDNA vector (right image) or with Elk-1 in pcDNA (left image). FIG. […] Scale bar=20 μm.
In order to assess whether neurons were dying via apoptosis or necrosis following Elk-1 over-expression, DAPI and Hoechst nuclear stains were used to look for evidence of pycnotic nuclei, characteristic of an apoptotic phenotype.

[4] = system: primary rat corticol neurons; assay: Elk-1 association with mitochondria, Western blotting of mitochondrial fractions; type: cell-based; settings: Western blotting after drug application
Protocol: Mitochondrial fractionation for western blots: A mitochondrial isolation kit (Pierce) was used according to the manufacturer's instructions to isolate mitochondria from primary neuronal cultures. Once isolated, mitochondria were lysed in buffer containing: 150 mM NaCl, 1% NP-40, 0.5% Deoxycholic acid, 0.1% SDS, 50 mM Tris, 10 ug/mL Aprotinin, 5 ug/mL Leupeptin, 1 mM sodium orthovanidate, 1 mM PMSF and 100 ug/mL TPCK. Lysate was then used for western blotting with the following antibodies: Elk-1 (Cell Signaling Technology), VDAC 1 (Santa Cruz Biotechnology), NeuN (Abcam).
To examine whether specific cellular insults could increase or decrease the association between Elk-1 and mitochondria, primary rat corticol neurons were exposed to a variety of compounds known to induce cell death in neurons, and mitochondrial fractions were then isolated and used for Western blotting.

SMILES: CO[C@H](C/C=C\C=C\CC/C=C/C[C@H](C)/C=C/C(=C\C(=O)O)CC(=O)O)/C(C)=C\C=C(/C)C(=O)O [BKA, bongkrekic acid]
- effect on Elk-1 induced cell death ([1]; pre-incubation with mitochondrial PTP inhibitor 25 μM, n=10): blocked; also recorded: cells did not die

SMILES: N[C@H](C(=O)O)c1cc(O)cc(O)c1 [DHPG, dihydrophenylglycine]
- Elk-1 immunoreactivity in both cell somas and dendrites [2]: substantial increase

SMILES: Cc1c2oc3c(C)ccc(C(=O)N[C@@H]4C(=O)N[C@H](C(C)C)C(=O)N5CCC[C@H]5C(=O)N(C)CC(=O)N(C)[C@@H](C(C)C)C(=O)O[C@@H]4C)c3nc-2c(C(=O)N[C@@H]2C(=O)N[C@H](C(C)C)C(=O)N3CCC[C@H]3C(=O)N(C)CC(=O)N(C)[C@@H](C(C)C)C(=O)O[C@@H]2C)c(N)c1=O [actinomycin D] (I: T[dV]P[Sar][NMeV] / II: T[dV]P[Sar][NMeV]; ester I:1-I:C, II:1-II:C; linker I:N-II:N via Actinocin(9to1))
- effect on Elk-1 induced cell death ([1]; pre-incubation with transcriptional inhibitor 1 μg/ml, n=7): inhibited

SMILES: COc1ccc(C[C@H]2NC[C@H](O)[C@H]2OC(C)=O)cc1 [anisomycin]
- effect on Elk-1-induced cell death ([1]; pre-incubation with translational inhibitor 5 μM, Elk-1 GFP mRNA photoporated): blocked; also recorded: absence of cell death

SMILES: CC[C@@]1(O)C(=O)OCc2c1cc1n(c2=O)Cc2cc3ccccc3nc2-1 [camptothecin]
- pycnotic nuclei [3]: presence of pycnotic nuclei
- Elk-1 association with mitochondria [4]: increased its association with mitochondria
